From article PMC11017246, “Discovery of GLPG2737, a Potent Type 2 Corrector of CFTR for the Treatment of Cystic Fibrosis in Combination with a Potentiator and a Type 1 Co-corrector” (Journal of Medicinal Chemistry, 2024)
Like-named read-outs stand apart in the source and are kept apart here.

Experiments:
[1] = biological target: T1, ΔF508 CFTR (Homo sapiens, UniProt P13569, DEL508-508); experiment: CSE-HRP: cell surface expression horseradish peroxidase assay in CFBE41o- cells; type: cell-based; settings: for Emax: CFBE41o-
T1 construct: host or cells: CFBE41o- TetON cells, expression induced with doxycycline
Description: A CFBE41o– cell line stably expressing ΔF508 CFTR harboring an HRP-tag in the fourth extracellular loop was obtained from Professor Gergely Lukacs (Department of Physiology, McGill University, Montreal, QC, Canada).[25] Cells were grown in Eagle’s minimal essential medium (Life Technologies) supplemented with 10% FBS, 1% L-glutamine (Life Technologies), 10 mM HEPES (Life Technologies), 200 μg/mL Geneticin (Life Technologies), and 3 μg/mL puromycin (Sigma) in culture flasks coated with 0.01% bovine serum albumin (BSA) (Sigma), 30 μg/mL Purecol (Nutacon), and 0.001% human fibronectin (Sigma).
CFBE41o– TetON cells expressing HRP tagged ΔF508-CFTR were seeded in white 384-well plates (Greiner) at a density of 2000 cells per well. Medium containing 500 ng/mL doxycycline was used to induce expression of ΔF508-CFTR-HRP. After 3 days, cells were treated with corrector or potentiator compounds and transferred to an incubator at 33 °C. On day 4, cells were washed five times with PBS containing Ca^2+ and Mg^2+ using a Bio-Tek plate washer and incubated with a chemiluminescent HRP substrate (SuperSignal West Pico Chemiluminescent Substrate, Thermo Scientific) for 15 min. Chemiluminescence was measured using an Envision plate reader (PerkinElmer). Dose response data was fitted using a 4 parameter hill function of the form Response = neg control + (pos control – neg control)/(1 + 10^(log EC50-concentration)/HillSlope) to determine EC50 values. Percentage efficacy was calculated using the following formula: (max response – neg control)/(C1 response – neg control).

[2] = Plasma protein binding, human; type: in vitro ADME; settings: human, plasma, pH 7.4, human plasma; read-out: PPB % human (converted)
Description: (§1) Plasma protein binding was determined by equilibrium dialysis using the Pierce Red Device plate with inserts (ThermoScientific). Test compound at 5 μM (0.5% DMSO) spiked in freshly thawed human, rat, mouse, or dog plasma (Bioreclamation INC, Westbury, NY, USA) was dialyzed against phosphate-buffered saline (PBS, pH 7.4) at 37 °C under shaking for 4 h. Aliquots were taken from each side of the well, and matrix matched. Proteins were precipitated with an excess of acetonitrile, samples were mixed and centrifuged, and the supernatant was analyzed by liquid chromatography–mass spectrometry/mass spectrometry (LC–MS/MS). Addition of compound peak areas in the buffer chamber and the plasma chamber was considered to be 100% compound.

[3] = PK rat; type: in vivo
Description: These studies were performed with naïve male Sprague–Dawley rats (Janvier France, 6–8 weeks old). Rats were dosed iv via a bolus in the tail vein with a dose level of 0.1 mg/kg or orally as a single esophageal gavage with a dose level of 5 mg/kg. For the iv route, the compound was formulated in PEG200/water (60/40; v/v). For the oral route, the compound was formulated in MC 0.5% (2/98) as a homogeneous suspension. Before the oral dosing, the animals were deprived of food for at least 12 h before compound administration until 3 h after administration. All animals had free access to the tap water. Blood samples were collected under light anesthesia and placed into tubes containing Li-heparin as an anticoagulant. Blood samples were collected up to 24 h after dosing (n = 3 rats per route). After centrifugation, the resulting plasma samples were assayed by LC-MS/MS with a nongood laboratory practice (non-GLP)-validated method. PK parameters were calculated by noncompartmental analysis using WinNonlin software (Certara, Princeton, NJ, USA).

[4] = Plasma protein binding, rat; type: in vitro ADME; settings: pH 7.4, read-out: PPB % rat (converted)
Description: as §1

[5] = biological target: T1, ΔF508 CFTR; experiment: TECC (transepithelial clamp circuit) in primary CF-derived HBE cells; type: cell-based; settings: for Emax: read-out: TECC HBE with GLPG2222 % max activation
Description: Bronchial epithelial cells isolated from the lungs of patients with CF homozygous for the ΔF508 CFTR mutation were obtained from McGill University (Montreal, QC, Canada) or the University of North Carolina (Chapel Hill, NC, United States). Cells were isolated from lungs obtained from donors undergoing planned transplantation. These primary cells were cultured directly on type IV collagen-coated polycarbonate Transwell supports with a diameter of 6.5 mm and pore size of 0.4 μm (Costar, #3397) for 18–25 days in an air–liquid interface, essentially as previously described for TECC.[23]
Twenty-four hours prior to the electrophysiological recording, corrector and/or potentiator compounds were added on both the apical and basolateral sides. TECC recordings were performed by using the TECC instrument developed and sold by EP Design (Bertem, Belgium). During the recording, the epithelial cells were bathed in a NaCl-Ringer solution (120 mM NaCl, 20 mM HEPES, 1.2 mM CaCl2, 1.2 mM MgCl2, 0.8 mM KH2PO4, 0.8 mM K2HPO4, 5 mM glucose, pH 7.4) on both the basolateral (640 μL) and the apical (160 μL) sides and kept at 37 °C. Corrector and potentiator compounds were readded at the same concentration used during the 24 h pretreatment. Apical amiloride was used to inhibit the endogenous ENaC currents (100 μM), while forskolin (10 μM) was applied on both the apical and basolateral sides to stimulate CFTR. Measurements were done during a 20 min time frame with recordings every 2 min. The transepithelial potential and transepithelial resistance were measured in an open circuit and transformed to Ieq using Ohm’s law. The maximal increase in Ieq (ΔIeq, the difference in current before and after forskolin or potentiator treatment) was used as a measure for the increased CFTR activity. EC50 values were generated by measuring the impact of different concentrations of compounds on ΔIeq in primary cells. For this purpose, each transwell was treated with a different compound concentration. CFTRInh-172 was added apically at 10 μM to assess the specificity of the response. Dose response data was fitted using a 3-parameter hill function of the form Response = Bottom + (Top – Bottom)/(1 + (EC50/concentration)) to determine EC50 values. Percentage efficacy was calculated using the following formula: (max response – neg control)/(C1 response – neg control).

[6] = Hepatocyte stability, rat; type: in vitro ADME; settings: pooled cryopreserved hepatocytes in suspension, read-out: Hep CLint,u rat (converted)
Description: The hepatocyte stability assay was performed by incubation of test compound at 1 μM, 0.03% DMSO in modified Krebs–Henseleit buffer with suspension of pooled cryopreserved hepatocytes (BioIVT, Hicksville, NY, USA) from mouse, rat, dog, or human (BioIVT, Hicksville, NY, USA) at 0.5 million viable hepatocytes/mL. Before adding the hepatocytes (time zero) and after 10, 20, 45, 90, 120, and 180 min of incubation (n = 2) at 37 °C while gently shaking, the reaction was stopped and proteins were precipitated with an excess of acetonitrile containing an internal standard. The samples were mixed, centrifuged, and filtered, and the supernatant was analyzed by liquid chromatography–mass spectrometry/mass spectrometry (LC–MS/MS). The instrument responses (peak areas/IS peak areas) were referenced to the zero-time point samples (considered as 100%) in order to determine the percentage of compound remaining.

[7] = no additional corrector, relative to lumacaftor or 5 (3 μM) positive control, read-out: CSE-HRP % max activation
[8] = no additional corrector, 24 h incubation, 33 °C, geometric mean, read-out: CSE-HRP EC50
[9] = in the presence of C1 corrector 5, relative to 5 (3 μM) positive control, read-out: CSE-HRP with 5 % max activation
[10] = in the presence of C1 corrector 5, read-out: CSE-HRP with 5 EC50

T1 sequence (P13569 with tags, fused parts or gaps DEL508-508): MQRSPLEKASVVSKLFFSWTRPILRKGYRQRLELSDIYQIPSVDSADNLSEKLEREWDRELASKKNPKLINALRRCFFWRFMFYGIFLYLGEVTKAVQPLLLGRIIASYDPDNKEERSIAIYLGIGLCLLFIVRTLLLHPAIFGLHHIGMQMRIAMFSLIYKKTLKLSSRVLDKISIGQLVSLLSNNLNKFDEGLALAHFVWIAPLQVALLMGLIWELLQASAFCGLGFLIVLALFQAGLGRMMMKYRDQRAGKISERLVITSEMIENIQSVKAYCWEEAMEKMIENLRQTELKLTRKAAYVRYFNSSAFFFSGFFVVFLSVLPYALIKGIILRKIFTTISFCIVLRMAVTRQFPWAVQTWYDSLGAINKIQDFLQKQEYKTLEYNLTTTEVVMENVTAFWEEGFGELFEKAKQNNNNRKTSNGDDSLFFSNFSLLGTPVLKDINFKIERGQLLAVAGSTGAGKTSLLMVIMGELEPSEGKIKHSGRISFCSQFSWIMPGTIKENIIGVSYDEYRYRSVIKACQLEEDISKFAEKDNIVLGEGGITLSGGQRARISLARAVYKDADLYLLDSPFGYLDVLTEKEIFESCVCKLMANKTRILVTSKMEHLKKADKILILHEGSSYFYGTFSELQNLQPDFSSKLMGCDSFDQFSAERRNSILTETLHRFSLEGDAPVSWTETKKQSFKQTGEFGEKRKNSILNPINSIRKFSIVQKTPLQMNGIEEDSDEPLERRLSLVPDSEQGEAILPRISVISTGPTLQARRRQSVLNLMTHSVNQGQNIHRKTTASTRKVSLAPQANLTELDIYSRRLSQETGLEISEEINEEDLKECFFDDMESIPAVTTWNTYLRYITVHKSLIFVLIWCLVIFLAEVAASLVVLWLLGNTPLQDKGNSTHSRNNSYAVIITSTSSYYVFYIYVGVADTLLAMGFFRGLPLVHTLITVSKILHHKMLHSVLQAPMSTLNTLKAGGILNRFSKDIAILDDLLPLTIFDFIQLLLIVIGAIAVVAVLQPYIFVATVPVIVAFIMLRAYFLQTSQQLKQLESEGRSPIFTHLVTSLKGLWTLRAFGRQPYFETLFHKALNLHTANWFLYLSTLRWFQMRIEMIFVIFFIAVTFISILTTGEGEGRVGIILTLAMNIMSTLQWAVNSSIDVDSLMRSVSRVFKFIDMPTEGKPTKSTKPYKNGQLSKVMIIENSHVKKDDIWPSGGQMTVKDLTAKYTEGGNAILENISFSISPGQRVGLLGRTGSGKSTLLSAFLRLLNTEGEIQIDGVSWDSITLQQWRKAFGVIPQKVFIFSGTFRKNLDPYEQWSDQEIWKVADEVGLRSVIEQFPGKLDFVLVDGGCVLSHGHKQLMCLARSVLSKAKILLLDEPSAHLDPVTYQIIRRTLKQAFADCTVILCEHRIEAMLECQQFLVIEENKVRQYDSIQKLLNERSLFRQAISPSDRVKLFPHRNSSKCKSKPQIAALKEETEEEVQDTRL

Cc1nn(C2CCN(C)CC2)c2nc(C(=O)O)cc(-c3ccc(N4CCOCC4)cc3)c12 [Compound 14]
Emax [1, 7]: -2% | EC50 [1, 8]: 10 µM

O=C(O)c1cc(-c2ccc(N3CCOCC3)cc2)c2cnn(-c3ccccc3)c2n1 [Compound 15]
Emax [1, 7]: 116% | EC50 [1, 8]: 1.27 µM

CC(C)c1nn(-c2ccccc2)c2nc(C(=O)O)cc(-c3ccc(N4CCOCC4)cc3)c12 [Compound 16]
Emax [1, 7]: 184% | EC50 [1, 8]: 0.448 µM

O=C(O)c1cc(-c2ccc(N3CCOCC3)cc2)c2c(C3CCC3)nn(-c3ccccc3)c2n1 [Compound 18]
fraction unbound at 4 h, 5 μM [2]: 0.01 | clearance ([3]; male, Sprague-Dawley, plasma, 1 mg/kg, iv dosing, read-out: plasma clearance (converted)): 3.33 mL/min/kg | clearance ([3]; male, Sprague-Dawley, plasma, iv, 0.1 mg/kg, formula-strings file, unit inferred, read-out: Cl (converted)): 3.33 mL/min/kg | Vd ([3]; male, Sprague-Dawley, plasma, iv, 0.1 mg/kg, formula-strings file, unit inferred, read-out: Vss): 0.474 L/kg | Vd ([3]; male, Sprague-Dawley, plasma, iv, 1 mg/kg, 1 mg/kg iv, read-out: Vss): 0.474 L/kg

COCCNc1ccc(-c2cc(C(=O)O)nc3c2c(C)nn3-c2ccccc2)cc1 [Compound 24]
Emax [1, 7]: 175% | EC50 [1, 8]: 2.12 µM

COCCN(C)c1ccc(-c2cc(C(=O)O)nc3c2c(C)nn3-c2ccccc2)cc1 [Compound 25]
Emax [1, 7]: 204% | EC50 [1, 8]: 1.49 µM

CC(=O)c1cc(-c2ccc(N3CCOCC3)cc2)c2c(C)nn(-c3ccccc3)c2n1 [Compound 29]
Emax [1, 7]: 8.2% | EC50 [1, 8]: 10 µM

Cc1nn(-c2ccccc2)c2nc(CO)cc(-c3ccc(N4CCOCC4)cc3)c12 [Compound 30]
Emax [1, 7]: 15% | EC50 [1, 8]: 10 µM

Cc1nn(-c2ccccc2)c2nc(C(C)O)cc(-c3ccc(N4CCOCC4)cc3)c12 (centres unmarked) [Compound 31]
Emax [1, 7]: 8.8% | EC50 [1, 8]: 10 µM

Cc1nn(-c2ccccc2)c2nc(C(C)(C)O)cc(-c3ccc(N4CCOCC4)cc3)c12 [Compound 32]
Emax [1, 7]: 5% | EC50 [1, 8]: 10 µM

Cc1nn(-c2ccccc2)c2nc(C(=O)NCC(F)(F)F)cc(-c3ccc(N4CCOCC4)cc3)c12 [Compound 33]
Emax [1, 7]: 7% | EC50 [1, 8]: 10 µM

COc1cc(-c2cc(-c3ccc(N4CCOCC4)cc3)c3c(C)nn(-c4ccccc4)c3n2)n[nH]1 [Compound 34]
Emax [1, 7]: 4% | EC50 [1, 8]: 10 µM

Cc1nn(-c2ccccc2)c2nc(CC(=O)O)cc(-c3ccc(N4CCOCC4)cc3)c12 [Compound 35]
Emax [1, 7]: 24% | EC50 [1, 8]: 10 µM

Cc1nn(-c2ccccc2)c2nc(C(=O)NC#N)cc(-c3ccc(N4CCOCC4)cc3)c12 [Compound 36]
Emax [1, 7]: 96% | EC50 [1, 8]: 2.98 µM

CS(=O)(=O)NC(=O)c1cc(-c2ccc(N3CCOCC3)cc2)c2c(C3CCC3)nn(-c3ccccc3)c2n1 [Compound 39]
fraction unbound at 4 h, 5 μM [2]: 0.0005

COCCN(C)c1ccc(-c2cc(C(=O)O)nc3c2c(C2CCC2)nn3-c2ccccc2)cc1 [Compound 40]
Emax [1, 9]: 325% | Emax [1, 7]: 173% | EC50 [1, 10]: 0.448 µM | EC50 [1, 8]: 0.542 µM

COCCN(C)c1ccc(-c2cc(C(=O)O)nc3c2c(C2CCC2)nn3-c2ccccc2)cn1 [Compound 42]
Emax [1, 9]: 417% | Emax [1, 7]: 191% | EC50 [1, 10]: 0.483 µM | EC50 [1, 8]: 0.529 µM

CS(=O)(=O)NC(=O)c1cc(N2CCCCC2)c2c(C3CCC3)nn(-c3ccccc3)c2n1 [Compound 46]
fraction unbound at 4 h, 5 μM [2]: < 0.001 | fraction unbound at 4 h, 5 μM [4]: 0.001

COC1CCN(c2cc(C(=O)NS(C)(=O)=O)nc3c2c(C2CCC2)nn3-c2ccccc2)CC1 [Compound 47]
fraction unbound at 4 h, 5 μM [2]: 0.002 | fraction unbound at 4 h, 5 μM [4]: 0.002

CS(=O)(=O)NC(=O)c1cc(N2CCC(C#N)CC2)c2c(C3CCC3)nn(-c3ccccc3)c2n1 [Compound 48]
fraction unbound at 4 h, 5 μM [2]: 0.003 | fraction unbound at 4 h, 5 μM [4]: 0.003 | Emax ([5]; primary ΔF508 homozygous HBE cells, 24 h incubation, with GLPG2222): 265% | EC50 ([5]; primary ΔF508 homozygous HBE cells, 24 h incubation, with GLPG2222, read-out: TECC HBE with GLPG2222 EC50): 0.06 µM

CS(=O)(=O)NC(=O)c1cc(N2CCC(N3CCOCC3)CC2)c2c(C3CCC3)nn(-c3ccc(F)cc3)c2n1 [Compound 50]
fraction unbound at 4 h, 5 μM [2]: 0.013 | CLu rat ([3]; iv, unbound clearance): 205 mL/min/kg | clearance ([3]; male, Sprague-Dawley, plasma, 0.1 mg/kg, iv, read-out: CLp rat (converted)): 1.83 mL/min/kg | half-life ([3]; male, Sprague-Dawley, plasma, 0.1 mg/kg, iv, read-out: t1/2 iv rat (converted)): 3.31 h | Vd ([3]; male, Sprague-Dawley, plasma, iv, 0.1 mg/kg, iv, read-out: Vss rat): 0.47 L/kg | CLint scaled at 1 μM [6]: < 11.5 mL/min/kg | fraction unbound at 4 h, 5 μM [4]: 0.009 | Emax ([5]; HBE, footnote b: after 24 h incubation a fixed 1 μM C2 corrector concentration was added during the recording): 410% | EC50 ([5]; footnote b: after 24 h incubation a fixed 1 μM C2 corrector concentration was added during the recording, read-out: TECC HBE with GLPG2222 EC50): 0.046 µM

CC1(C)Cc2c(sc(NC(=O)c3ccn[nH]3)c2C(N)=O)C(C)(C)O1 [GLPG1837, reference compound]
fold ([5]; no C2 corrector (reference)): 1 fold | EC50 ([5]; no C2 corrector, C1 corrector GLPG2222 (4) 0.15 μM, read-out: EC50 of potentiator GLPG1837): 0.013 µM
